The values that follow come from patent EP0576766A1, “Propanolamine derivatives, their preparation and use” (NOVO NORDISK A/S, priority 1992, dated 1994).

Structures are written as SMILES. Where a name gives a salt, the structure may show the parent alone.

The test system of this experiment is voltage operated calcium channels (VOC). The experiment can be described thus: Inhibition of depolarization-stimulated 45Ca uptake into brain synaptosomes. The experiment is classed as biochemical. The settings on record: inhibition of stimulated uptake of ⁴⁵Ca in depolarized (145 mM KCl) rat cerebral cortex synaptosomes (P₂ fraction), corrected for basal uptake; 15 s incubation; estimated from dose response curves. From the text: The pharmacological properties of the compounds of the invention can be illustrated by determining their capability to inhibit calcium uptake into brain synaptosomes.
Depolarization of neuronal membranes leads to an opening of socalled "voltage operated calcium channels" (VOC) in the membranes which allows a massive influx of calcium from the extracellular space. A crude synaptosomal preparation (socalled P₂ fraction) contains small vesicles surrounded by neuronal membrane and it is possible in such a preparation to study a depolarization-induced opening of VOC.
A male Wistar rat is decapitated and the cerebral cortex removed and homogenized in 10 ml. of ice-cold 0.32 M sucrose using a glass homogenizer with a teflon pestle. All subsequent steps for isolation of synaptosomes are done at 0-4°C. The homogenate is centrifuged at 1000 x g for 10 min and the resulting supernatant is re-centrifuged at 18000 x g for 20 min. This pellet (P₂) is resuspended in 0.32 M sucrose (5 ml per g of original tissue) with a teflon pestle.
The tubes are pre-incubated for 30 min on ice and then for 6 min at 37°C in a water bath.
The incubation is continued for 15 s.
The amount of radioactivity on the filter disc is determined by liquid scintillation spectrometry.
Test substances are dissolved in 10 ml of 48% ethanol at a concentration of 0.44 mg/ml. Dilution are made in 48% ethanol to give final concentrations of 0.1, 0.3, 1, 3 and 10 µg/ml. Experiments are performed in triplicate. Controls for depolarized and nondepolarized samples are included in the assay and test substances are only tested in depolarized samples.
The test value will be given as IC₅₀ (the concentration (µg/ml) of test substance which inhibit 50% of stimulated uptake of ⁴⁵Ca (uptake in depolarized samples corrected for basal uptake in nondepolarized samples )). The IC₅₀ value is estimated from dose response curves.
Consider `Cl.c1ccc(C(CCN2CCOCC2)Oc2ccc3c(c2)CCC3)cc1` (stereo not drawn) [Compound 2, 4-(3-(5-Indanyloxy)-3-phenylpropyl)morpholine, hydrochloride], for which the IC₅₀ is 16 µg/mL. With `FC(F)(F)c1ccc(OC(CCN2CCOCC2)c2ccccc2)cc1.O=C(O)C(=O)O` (stereo not drawn) [Compound 3, 4-(3-Phenyl-3-(4-trifluoromethylphenoxy)propyl)morpholine, oxalate] the figure was 17 µg/mL. Then `CN1CCN(CCC(Oc2ccc(C(F)(F)F)cc2)c2ccccc2)CC1` (stereo not drawn) [Compound 5, 1-(3-Phenyl-3-(4-trifluoromethylphenoxy)propyl)-4-methyl piperazine, oxalate], with 7.5 µg/mL. For `CN(C)CCC(Oc1cccc(C(F)(F)F)c1)c1ccc([N+](=O)[O-])cc1.Cl` (stereo not drawn) [Compound 15, N,N-dimethyl-3-(4-nitrophenyl)-3-(3-trifluoromethylphenoxy)propanamine, hydrochloride], the IC₅₀ is 6.1 µg/mL. For the compound `CN(C)CCC(Oc1ccc2c(c1)CCCC2)c1ccc([N+](=O)[O-])cc1.Cl` (stereo not drawn) [Compound 17, N,N-dimethyl-3-(4-nitrophenyl)-3-(5,6,7,8-tetrahydro-2-naphthoxy)propanamine, hydrochloride], the IC₅₀ was 4.9 µg/mL. With `FC(F)(F)c1ccc(OC2c3ccccc3CC2CN2CCCCC2)cc1` (stereo not drawn) [Compound 20, trans-1-(1-(4-Trifluoromethylphenoxy)indan-2-yl)methyl piperidine, hydrochloride] the figure was 8.0 µg/mL.

For `CC(=O)Nc1ccc(C(CCN2CCCCC2)Oc2ccc(C(F)(F)F)cc2)cc1.O=C(O)C(=O)O` (stereo not drawn) [Compound 23, 1-(3-(4-Acetamidophenyl)-3-(4-trifluoromethylphenoxy)propyl)piperidine, oxalate], the IC₅₀ is 4.0 µg/mL. For `CC(=O)Nc1cccc(C(CCN2CCCCC2)Oc2ccc(C(F)(F)F)cc2)c1.O=C(O)C(=O)O` (stereo not drawn) [Compound 24, 1-(3-(3-Acetamidophenyl)-3-(4-trifluoromethylphenoxy)propyl)piperidine, oxalate], the IC₅₀ was 5.3 µg/mL. With `N#Cc1ccc(C(CCN2CCCCC2)Oc2ccc(C(F)(F)F)cc2)cc1.O=C(O)C(=O)O` (stereo not drawn) [Compound 25, 1-(3-(4-Cyanophenyl)-3-(4-trifluoromethylphenoxy)propyl)piperidine, oxalate] the figure was 2.2 µg/mL.
